In PMC8156061, “Design, Synthesis, and Anticancer Screening for Repurposed Pyrazolo[3,4-d]pyrimidine Derivatives on Four Mammalian Cancer Cell Lines” (Molecules, 2021):

Columns and labels:
male albino rats = experiment: In vivo toxicity evaluation: serum hepatic and renal biochemical parameters in rats; design: species or system rat; conditions: 20 mg/kg/day orally twice weekly for 6 weeks; for ALP / ALT / AST / Albumin / Bilirubin / Cholesterol / Triglyceride: rat serum; for Overall in vivo toxicity assessment: rats, versus healthy control group
Excerpt: Before the assessment of the anticancer activity of the compounds, in the present study, we examined their toxicity in vivo on normal tissues.
Male albino rats (150 g average weight) were purchased from the animal house of the Institute of Graduate Studies and Research, Alexandria University, Egypt. The animals were housed under standardized environmental conditions, fed with a standard diet and water, and left to acclimate to the environment for one week prior to inclusion in the experiment. All of the animal experiments were conducted in accordance with the guidelines for the care and use of laboratory animals of the National Institutes of Health (NIH 1985). The experimental procedures employed were ethically reviewed and approved by the Institutional Animal Care and Use Committee (IACUC) of Alexandria University (Ethical approval number of the study: AU14-200922-1-8A) and “declaration of Helsinki”. Four groups of rats were administered 20 mg/kg/day of compounds 5, 6, and 7 orally twice weekly for 6 weeks. Liver enzymes and other liver biomarkers together with creatinine and urea were measured (Table 1).
The collected blood was allowed to clot, the serum was separated at 2000× g, and the biochemical markers of hepatic damage, including serum ALT, AST [33], ALP [34], albumin [35], total bilirubin [36], TG [37], urea, creatinine, and total cholesterol, were estimated according to previously reported methods. These parameters were determined using available commercial kits (ARE) following the instructions of the manufacturer.

HT1080 cells = experiment: Cell viability, crystal violet staining, HT1080; type: cell-based, human; conditions: for first concentration with significant reduction in cell viability / IC50: HT1080, 48 h; for first concentration with significant reduction in cell viability: versus control; for IC50: Homo sapiens, HT-1080
Description: (§1) A (4,5-dimethylthiazol-2-yl)-2,5-diphenyltetrazolium) MTT assay was used for the determination of the cytotoxic effects of three compounds (5, 6, and 7) in vitro (Figure 9). Hela, HT1080, Caco-2, and A549 cells were treated with various concentrations of the compounds employed in the current study (0, 1, 10, 50, 100, 500 µM) for 48 h.
(§2) Figure 9 Normalised percentage cell viability inhibition of compounds 5 and 7, measured by three independent MTT assays in A549 and Caco-2 cell lines and by three independent experiments with crystal violet staining in Hela and HT1080 cell lines. Cells were treated with different concentrations (from 1 and up to 500 µM) of the compounds for 48 h, * = first concentration significant reduction in cell viability in comparison to the control.
(§3) Human fibrosarcoma (HT1080), cervical cancer (Hela), colorectal cancer (Caco-2), and human lung cancer cell lines (A549) were purchased from […] (ECACC, Salisbury, UK). Cervical cancer cells (Hela) and fibrosarcoma cells (HT-1080) were maintained in a RPMI medium supplemented with 10% foetal bovine serum (FBS) and were expanded at 37 °C and 5% CO2. Caco-2 and A549 cells were grown in Dulbecco’s modified eagle medium (DMEM)-high glucose (biowest, Riverside, MO, USA) enriched with (10% v/v) (foetal bovine serum) FBS (biowest, Riverside, MO, USA) and antibiotics (100 U/mL penicillin, 100 μg mL streptomycin) (Lonza, Basel, Switzerland). Cells were maintained at 37 °C in an incubator with 5% CO2 atmosphere. Part of the experiments were carried out in CERRMA (Center of Excellence for Research in Regenerative Medicine and its Applications), Faculty of Medicine, Alexandria University.
(§4) Cervical Hela and HT-1080 cells (2 × 10^4 per well) were seeded in 96-well tissue culture plates in 100 μL cell culture medium. Cells were incubated for 48 h in triplicates with the compounds of interest. The cytotoxic effect was assessed by crystal violet staining and measured at 595 nm. To normalize cell viability values each plate included a triplicate of cells treated with DMSO, the vehicle of the compound to calculate 100% viable cells. At the same time, a triplicate of cells was simulated with a cytotoxic combination (200 ng/mL TNF, 200 ng/mL CD95L, 200 ng/mL TRAIL, 25 µg/mL CHX, 1% (w/v) sodium azide) to elucidate maximal cell death, and thus 0% viability. All other viability values were normalized depending on the averages of these triplicates and evaluated by the Graph Pad Prism 5 software (La Jolla, CA, USA).

Hela cells = experiment: Cell viability, crystal violet staining, Hela; type: cell-based, human; conditions: 48 h; for first concentration with significant reduction in cell viability: versus control; for IC50: Homo sapiens, HeLa
Description: as §1, §2, §3, §4

Caco-2 cells = experiment: Cell viability, MTT assay, Caco-2; type: cell-based, human; conditions: for IC50: Homo sapiens
Description: as §1, §2, §3
(§5) The cell viability of A549 and Caco-2 cells was measured using MTT assays. Cells were incubated for 48 h in triplicates with the compounds of interest. […] Cells were seeded in 96-well plates at a density of 5 × 10^3 cells/well and were maintained in complete media. After adherence for 48 h, cells were treated with different concentrations of newly synthesized compounds ranging from […]. The plates were incubated at 5% CO2 and 37 °C. After 48 h, the medium was discarded, and cells were incubated with 100 μL MTT (Serva, Heidelberg, Germany) solution (0.5 mg/mL) for 3 h at 5% CO2 and 37 °C. Finally, the reagent was discarded and replaced with 100 μL DMSO. The optical density was measured at a wavelength of 570 nm (Tecan, Infinite F50, Magellan reader control and data analysis software, Mennedov, Switzerland). The percentage cell viability data were obtained by normalization of the optical density (OD) values for all groups to the OD of the control group.

A549 cells [1] = experiment: Cell viability, MTT assay, A549; type: cell-based, human; conditions: for first concentration with significant reduction in cell viability / IC50: A549, 48 h; for first concentration with significant reduction in cell viability: versus control; for IC50: Homo sapiens
Description: as §1, §2, §3, §5

BCR-ABL tyrosine kinase = tested on: BCR-ABL tyrosine kinase; design: method as in earlier work; conditions: literature statement; cited from earlier work
A549 cells [2] = experiment: Apoptosis assay, annexin V flow cytometry; type: cell-based, human
Description: (§6) In order to exclude apoptotic effects as a mechanism for the observed anticancer activity of the compounds and according to the in silico results, induction of apoptosis by compound 7 was examined using an annexin V flow cytometry assay (Figure 10a).
(§7) Figure 10 (a) Apoptosis analysis in A549 cells following treatment of cells with compound 7 at IC50 concentration. Flowcytometry was conducted using Alexa Fluor 488 annexin V conjugate. […] (b) Western blot analysis showing cleaved caspase-3 protein expression level. […] (c) Proliferation analysis (Ki67) in A549 cells following treatment cells with compound 7 at IC50 concentration. The analysis was done using flow cytometry and the Ki-67 FITC antibody.
For evaluating cell apoptosis, cells were plated in 6-well plates at a density of 2 × 10^4 cells per well. After incubation for 24 h, 70% confluency is reached. Cells were then labelled using the FITC Annexin V apoptosis detection kit I (BD Pharminogen, San Diego, CA, USA) according to manufacturer’s instructions (Cell Signaling Technology; Flow Cytometry, Methanol Permeabilization Protocol) and analysed by using BD FACS Calibur flow cytometry and Cell Quest™ software.

[3] = tested on: cleaved caspase-3 protein; experiment: Western blot of cleaved caspase-3 protein expression; type: cell-based; conditions: IC50 concentration, versus untreated cells
Description: as §6, §7
A western blot assay was carried out to examine cleaved caspase-3 protein expression levels following the different treatments with different concentrations of the compound that were employed in the current study. Cells (5 × 10^5 cells/well) were seeded in 12-well plates and were induced the next day with the compounds of interest for 48 h. […] The proteins of interest were detected with a suitable primary antibody (Anti-Caspase-3, 17,19 kD, Rabbit polyclonal ≠ 9661, from Cell Signaling Technology, Beverly, MA, USA) and horseradish peroxidase conjugated secondary antibodies (Dako, Glostrup, Denmark and Cell Signaling Technology, Beverly, MA, USA).

[4] = tested on: Ki67 expression in A549 cells; experiment: Proliferation assay, Ki67 expression by flow cytometry; type: cell-based, human; conditions: A549, IC50 concentration, 48 h; control cells 85.61%
Description: as §7
Ki67 expression was determined using a flow cytometry assay. […] The percentage of cells labelled using Ki67 antibody in the control cells was 85.61%, whereas those labelled with the same antibody following treatment with compound 7 was 68.06%.
For evaluating the proliferation status of cells, cells were plated in 6-well plates at a density of 2 × 10^4 cells per well for the cell proliferation assay. After incubation for 24 h, 70% confluency is reached.

Row | SMILES | ALP (male albino rats) [U/L] | ALT (male albino rats) [U/L] | AST (male albino rats) [U/L] | Albumin (male albino rats) [g/dL] | Bilirubin (male albino rats) [mg/dL] | Cholesterol (male albino rats) [mg/dL] | Triglyceride (male albino rats) [mg/dL] | Overall in vivo toxicity assessment (male albino rats) | first concentration with significant reduction in cell viability (HT1080 cells) [µM] | IC50 (HT1080 cells) [µM] | first concentration with significant reduction in cell viability (Hela cells; Hela) [µM] | IC50 (Hela cells) [µM] | IC50 (Caco-2 cells; Caco-2, 48 h) [µM] | first concentration with significant reduction in cell viability (A549 cells [1]) [µM] | IC50 (A549 cells [1]) [µM] | also measured
1 | COc1ccc(C=NNc2ncnc3c2cnn3-c2ccccc2)cc1 [Compound 5, 2-(4-Methoxybenzylidene)-1-(1-phenyl-1H-pyrazolo[3,4-d]pyrimidin-4-yl)hydrazine] | 2.1 ± 0.52 | 43 ± 5.2 | 102 ± 8.7 | 4.4 ± 0.37 | 0.11 ± 0.12 | 71 ± 4.8 | 72 ± 8.6 | safe compounds comparable to the healthy control group | 50 | 96.2 | 50 | 74.8 | 76.9 | 50 | 148 | 
2 | COc1ccc(/C=N/Nc2ncnc3c2cnn3-c2ccccc2)cc1OC [Compound 6] | 2 ± 0.12 | 44 ± 5.7 | 100 ± 9.8 | 4.6 ± 1.8 | 0.12 ± 0.12 | 69 ± 7.8 | 75 ± 6.5 | safe compounds comparable to the healthy control group |  |  |  |  |  |  |  | effect on cell viability (HT1080 cells; HT1080, up to 500 µM, 48 h, data not shown): did not show any significant decrease in the cell viability; effect on cell viability (Hela cells; Hela, up to 500 µM, data not shown): did not show any significant decrease in the cell viability; effect on cell viability (Caco-2 cells; Caco-2, up to 500 µM, 48 h, data not shown): did not show any significant decrease in the cell viability; effect on cell viability (A549 cells [1]; A549, up to 500 µM, 48 h, data not shown): did not show any significant decrease in the cell viability; inhibition of BCR-ABL tyrosine kinase (BCR-ABL tyrosine kinase): capable of inhibiting BCR-ABL tyrosine kinase
3 | COc1cc(C=NNc2ncnc3c2cnn3-c2ccccc2)cc(OC)c1OC [Compound 7, 2-(3,4,5-Trimethoxybenzylidene)-1-(1-phenyl-1H-pyrazolo[3,4-d]pyrimidin4yl)hydrazine] | 1.8 ± 0.88 | 42 ± 7.2 | 103 ± 8.8 | 4.6 ± 1.1 | 0.11 ± 0.32 | 71 ± 5.8 | 77 ± 7.5 | safe compounds comparable to the healthy control group | 25 | 43.8 | 12.5 | 17.5 | 73.1 | 1 | 68.8 | first concentration with significant reduction in cell viability (Caco-2 cells; Caco-2, 48 h, versus control): 1 µM; effect on viability of cells through apoptosis (A549 cells [2]; A549, 24 h incubation, versus untreated group): no significant effect; percentage gating in the lower left quadrant (annexin V) (A549 cells [2]; A549, IC50 concentration, control untreated 97.8): 97.58%; change in cleaved caspase-3 protein expression level [3]: no significant change; percentage of cells labelled using Ki67 antibody [4]: 68.06%
